Values of other authors as cited in patent US20030129188A1, “Integrin targeting compounds” (The Scripps Research Institute, priority 2001, published 2003).

Details: more potent than doxorubicin itself

For `COc1cccc2c1C(=O)c1c(O)c3c(c(O)c1C2=O)C[C@@](O)(C(=O)CO)C[C@@H]3O[C@H]1C[C@H](N2C=CCC2)[C@H](O)[C@H](C)O1` [2-pyrrolinodoxorubicin], which “potency relative to doxorubicin” value is on record?
The value was 500-1000 times.
